Measured values reported in patent US20120190580A1, “TREATMENT OF PATIENTS AFTER STENT IMPLANTATION OR BALLOON DILATATION AND DRUG ELUTING STENTS” (MAX-PLANCK-GESELLSCHAFT ZUR FORDERUNG DER WISSENSCHAFTEN …, priority 2009, published 2012).

Experiments:
Type in all cases: in vivo, mouse
arteries of KO mice = experiment: Morphological analysis of arteries after chronic treatment; conditions: 20 days treatment
Description: A 129S7AB2.2 genomic BAC clone (bMQ-446B20; Sanger) was used to generate the targeting vector. Recombination in SW102 cell was employed to replace the miR-143 to miR-145 genomic region by a galK cassette (45) that was amplified by the primers flanking premiR-143 to pre-miR-145 ([…] GCggcgcgcctcagcactgtcctgctcctt; […] ACggcgcgcctgttgacaattaatcatcggca). The genomic sequence was inserted via gap repair into a pKO targeting vector containing a DTA expression cassette and 450 bp homology arms for BAC recombination resulting in a vector containing 6.5 kb of sequence 5′ of miR-143 and 5.5 kb 3′ of miR-145 from genomic sequence […] to […]. The AscI restriction sites flanking the galK cassette were used to replace the galK by a floxed IRESIacZ-NeoR cassette. […]
Arteries were perfused using a PBS solution via the heart apex at 100 mmHg pressure for 2 min, followed by perfusion with 4% paraformaldehyde in PBS. […] Ultra-thin sections were stained with uranyl acetate and lead citrate, viewed and photographically recorded using a Philips CM 10 electron microscope. The phenotype of VSMC was determined ultrastructurally following criteria as previously reported (47). […] The phenotype of VSMC in each mouse was quantified in at least 300 cells per 3 arterial segments (minimum 100 μm) using consecutive transversal sections. […]

mesenteric arteries = experiment: Myograph: contractile responses to phenylephrine of mesenteric arteries from losartan-treated mice
Description: (§1) A 129S7AB2.2 genomic BAC clone (bMQ-446B20; Sanger) was used to generate the targeting vector. Recombination in SW102 cell was employed to replace the miR-143 to miR-145 genomic region by a galK cassette (45) that was amplified by the primers flanking premiR-143 to pre-miR-145 ([…] GCggcgcgcctcagcactgtcctgctcctt; […] ACggcgcgcctgttgacaattaatcatcggca). The genomic sequence was inserted via gap repair into a pKO targeting vector containing a DTA expression cassette and 450 bp homology arms for BAC recombination resulting in a vector containing 6.5 kb of sequence 5′ of miR-143 and 5.5 kb 3′ of miR-145 from genomic sequence […] to […]. The AscI restriction sites flanking the galK cassette were used to replace the galK by a floxed IRESIacZ-NeoR cassette. The vector was electroporated into MPI II ES cells (46) and recombinant clones were identified. Recombinant ES cells were injected into blastocysts and transferred to pseudopregnant mice. Chimeric animals were backcrossed to C57BL/6 mice. Heterozygous animals were used to obtain WT and KO littermates. ES cells and mice were genotyped using an EcoRV restriction digest and a 5′ outside probe amplified from genomic DNA using oligonucleotides ([…]; […]). For chronic ACE or AT1 inhibition drinking water of mice was supplemented with 600 μg/ml captopril (Sigma#C-8856) and 100 µg/ml losartan (Fluka#61188) for at least 3 weeks. The experiments were performed in accordance with German legislation on protection of animals and were approved by the local governmental animal care committee (Regierungspraesidium Darmstadt).
Isolated segments of femoral and mesenteric arteries were examined in an isometric microvessel myograph as described previously (52). Mounted vessels were stimulated with 80 mM K+, 30 nM angiotensin II or increasing concentrations of phenylephrine (100 nM to 10 μM). The pCa-force relationships (13, 14) were obtained in permeabilized mouse femoral artery segments. In brief, arteries were permeabilized for 30 minutes using 0.5% Triton X-100 in relaxation solution. The latter consisted of (in mM): EGTA 1, Pipes 30, Na2ATP 5.16, MgCl2 7.31, sodium creatine phosphate 10 and potassium gluconate 74.1. For contraction curves the buffer was supplemented with 160 U/ml calmodulin and 100 U/ml creatine phosphokinase. The concentration of free Ca2+ ions was calculated as described previously (53).

[1] = tested on: aortae of miR-143/145 KO mice; experiment: Affymetrix GeneChip mRNA expression analysis of aortae after chronic captopril or losartan
Description: as §1, with “For chronic ACE or AT1 inhibition drinking water of mice was supplemented with 600 μg/ml captopril (Sigma#C-8856) and 100 µg/ml losartan (Fluka#61188) for at least 3 weeks.” left out
Tissues were dissected from PBS perfused animals and total RNA was isolated using the Trizol method (Invitrogen). RNA quality was checked on the Agilent 2100 Bioanalyser using the RNA 6000 Nano Kit. For mRNA expression analysis the Affymetrix GeneChip Mouse Genome 430 2.0 Array was employed with the respective one-cycle target labelling protocol. Data were analysed by the RMA algorithm using the Affymetrix Expression Console. […] 507 probe sets were identified with p<0.05 and FC>1.5 or FC<0.666. For miRNA expression analysis 384 3′ C6 aminolinker DNA-oligonucleotides complementary to published miRNA (Sanger, miRBase) sequences were synthesised and spotted with eight replicates per array to Nexterion E slides. Probe labelling and hybridization followed the Agilent miRNA labelling protocol, but P-CTTTT-Alexa555 or P-CTTTTAlexa647 oligonucleotides (MWG-Biotech) were ligated to the miRNAs. Arrays were scanned and analysed with an Axon 4200B scanner and GenePix Pro 6.0. Normalisation and data analysis was performed using Acuity 4.0. For multiple tissue comparison, miRNA from tissues was labelled with the Alexa555 dye, miRNA from whole E15.5 embryos labelled with Alexa647 dye was used as a reference. Data were linear normalized to a log ratio of 1 for the ratio of medians of let-7a-g and let-7i signals. The log 2 ratio data were centered for the single miRNA expression signals (by subtracting the row mean from each value), log 2 ratio data are visualized. For Northern blot analysis 3 μg (aorta 1.5 μg) of total RNA were separated on a 15% Polyacrylamide-Urea gel (Invitrogen) and blotted on Hybond XL (Amersham). miR-145, miR-143 and U6 antisense oligonucleotides were labeled with γ-ATP and PNK (NEB) and purified using Micro Bio-Spin® 6 columns (Biorad). Hybridization was performed in Ultrahyb hybridization buffer (Ambion) at 30° C. over night. Blots were washed 2 times in 2×SSC/0.1% SDS at 25° C. (5 min) and at 42° C. (15 min). Signals were detected using a BAS-2500 imager (Fujifilm).

[2] = aorta, chronic oral treatment 20 days

CCCCc1nc(Cl)c(CO)n1Cc1ccc(-c2ccccc2-c2nn[nH]n2)cc1 [losartan]
significant morphological changes in arteries (arteries of KO mice): not observed | phenylephrine induced contraction relative to K+ force (mesenteric arteries; KO mice, losartan for 3 weeks): 96 % of the K+ force | enhancement of phenylephrine induced contraction (mesenteric arteries; KO mice, losartan for 3 weeks, 3 μM phenylephrine): 214% | enhancement of phenylephrine induced contraction (mesenteric arteries; KO mice, losartan for 3 weeks, 10 μM phenylephrine): 57% | phenylephrine-induced vasoconstriction (mesenteric arteries; WT mice, losartan): did not affect | contractility on phenylephrine stimulation (mesenteric arteries; arterial rings from KO animals, losartan-treated vs. KO untreated): significant enhancement | FC Acta1 (1427735_a_at), treated miR-143/145 KO vs. WT [1, 2]: 0.76 | FC Arhgef17 (1433682_at), treated miR-143/145 KO vs. WT [1, 2]: 1.11 | FC Cald1 (1424768_at), treated miR-143/145 KO vs. WT [1, 2]: 1.53 | FC Camk2g (1423942_a_at), treated miR-143/145 KO vs. WT [1, 2]: 1.17 | FC Cap2 (1423222_at), treated miR-143/145 KO vs. WT [1, 2]: 1.36 | FC Clcn3 (1433486_at), treated miR-143/145 KO vs. WT [1, 2]: 1.27 | FC Efemp1 (1427183_at), treated miR-143/145 KO vs. WT [1, 2]: 0.71 | FC Itga3 (1455158_at), treated miR-143/145 KO vs. WT [1, 2]: 0.84 | FC Krt8 (1420647_a_at), treated miR-143/145 KO vs. WT [1, 2]: 1.00 | FC Mc2r (1422926_at), treated miR-143/145 KO vs. WT [1, 2]: 0.70 | FC Mylk (1425506_at), treated miR-143/145 KO vs. WT [1, 2]: 1.06 | FC Mylpf (1448371_at), treated miR-143/145 KO vs. WT [1, 2]: 1.05 | FC Myoc (1450468_at), treated miR-143/145 KO vs. WT [1, 2]: 0.76 | FC Neo1 (1440789_at), treated miR-143/145 KO vs. WT [1, 2]: 1.27 | FC Npr3 (1435184_at), treated miR-143/145 KO vs. WT [1, 2]: 1.68 | FC Pde3b (1433694_at), treated miR-143/145 KO vs. WT [1, 2]: 0.87 | FC Ppp2r1b (1419871_at), treated miR-143/145 KO vs. WT [1, 2]: 0.65 | FC Prkg1 (1449876_at), treated miR-143/145 KO vs. WT [1, 2]: 1.16 | FC Rock1 (1460729_at), treated miR-143/145 KO vs. WT [1, 2]: 1.77 | FC S100a8 (1419394_s_at), treated miR-143/145 KO vs. WT [1, 2]: 1.83 | FC S100a9 (1448756_at), treated miR-143/145 KO vs. WT [1, 2]: 1.64 | FC Serca1 (1419312_at), treated miR-143/145 KO vs. WT [1, 2]: 0.82 | FC Tnnc2 (1417464_at), treated miR-143/145 KO vs. WT [1, 2]: 1.51 | FC Unc5c (1449522_at), treated miR-143/145 KO vs. WT [1, 2]: 0.80 | number of the 507 deregulated probe sets returned to normal (WT) levels ([1]; mutant mice, 3 weeks (20 days) oral application, p > 0.05 vs. WT, n = 3): 220
